Values belong to the substance of their own block, whether it stands above or below them. Ends that are not written are not given here.
How the values were obtained:
UW-SCC22 HNSCC PDX = assay: PDX tumor growth in nude mice; assay type: in vivo; settings: 4 weeks; for reduction of tumor growth compared with controls: P < 0.001
Description: (§1) Animal studies were approved by the University of Wisconsin–Madison Institutional Animal Care and Use Committee in accordance with the NIH guidelines. UW-SCC22 or UW-SCC64 PDXs derived from head and neck tumors ([31, 32]) were provided by Wisconsin Head and Neck Cancer SPORE (https://hn-spore.wisc.edu). Minced tissue isolated from host mice was subcutaneously injected into both flanks of 6–8 weeks old female, athymic Foxn1^nu outbred nude mice (Harlan Laboratories). After 1 week, animals were randomized and surgically implanted with Alzet (Durect Corp.) osmotic pumps (Model 2004) delivering 0.25 μL/hour of either PBS or PBS containing 4 mmol/L hSSTNIGF1R for 4 weeks. Animals were humanely sacrificed, bled, and tumors were removed and fixed in 4% paraformaldehyde before paraffin embedding and sectioning.

UW-SCC64 PDX = assay: PDX tumor growth in nude mice; assay type: in vivo; settings: peptide delivered by the pump only, P < 0.001
Description: as §1

[1] = system: ASK1 (pT845), pp38MAPK, pJNK in UM-SCC47 cells; assay: Temporal activation of ASK1, p38MAPK and JNK; assay type: cell-based, human; settings: 30 minutes after treatment with 30 μmol/L hSSTNIGF1R
[2] = target: T1, ITGAV and IGF1R pairing in UW-SCC64 PDX tumors (Homo sapiens, UniProt P08069); assay: PLA between IGF1R and ITGAV on tumor sections; assay type: in vivo, nude mice; settings: pump
T1 construct: from tissue; host or cells: UW-SCC22 and UW-SCC64 PDX tumours, subcutaneous in nude mice
T1 sequence (P08069 31-736 limits assumed): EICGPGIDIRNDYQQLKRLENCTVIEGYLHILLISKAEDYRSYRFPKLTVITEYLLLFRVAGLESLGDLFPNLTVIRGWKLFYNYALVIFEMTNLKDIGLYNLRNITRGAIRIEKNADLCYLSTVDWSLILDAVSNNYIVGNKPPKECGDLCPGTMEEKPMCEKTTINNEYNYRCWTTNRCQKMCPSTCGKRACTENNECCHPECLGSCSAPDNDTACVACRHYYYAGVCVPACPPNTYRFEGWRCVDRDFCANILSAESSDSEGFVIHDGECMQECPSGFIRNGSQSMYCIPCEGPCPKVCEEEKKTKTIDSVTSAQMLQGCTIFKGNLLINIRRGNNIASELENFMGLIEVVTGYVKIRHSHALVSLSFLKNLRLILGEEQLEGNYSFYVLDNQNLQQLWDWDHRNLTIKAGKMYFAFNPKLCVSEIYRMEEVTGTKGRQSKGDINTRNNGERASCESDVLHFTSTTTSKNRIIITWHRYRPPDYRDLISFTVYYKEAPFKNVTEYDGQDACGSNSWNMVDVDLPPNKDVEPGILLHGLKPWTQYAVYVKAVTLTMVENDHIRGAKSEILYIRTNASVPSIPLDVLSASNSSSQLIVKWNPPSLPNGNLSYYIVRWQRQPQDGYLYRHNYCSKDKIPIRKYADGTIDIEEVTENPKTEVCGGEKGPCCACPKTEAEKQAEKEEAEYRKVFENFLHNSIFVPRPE
Method: (§2) Paraffin-embedded PDX sections, sections of deidentified archival tumors from patients with tonsil carcinoma, or TMAs assembled from patients with deidentified oropharyngeal (TMA-01, TMA-02) or adenoid cystic (TMA-03) carcinoma were deparaffinized and subjected to antigen retrieval by heating in 10 mmol/L sodium citrate (pH 6.0) with 0.05% Tween 20 until boiling and then maintained at 99°C for 20 minutes before cooling to room temperature. The sections were then used for receptor and PLA staining, as described above. Fluorescent images were acquired using either a Zeiss PlanAPOCHROMAT 20X objective (0.8 NA) or 40X (1.4 NA) and a Zeiss AxioCam Mrm CCD camera on a Zeiss Axio Imager.M2 microscopy system. CellProfiler 3.1.5 (Carpenter Lab, Broad Institute of Harvard and MIT) was used to quantify nuclei and PLA signals with threshold limits based on relevant comparative controls. Cell Profiler software analysis was checked by direct comparison with visual quantification of PLA dots or DAPI-stained nuclei in test images to accurately quantify PLA dots per cell and to exclude false or background fluorescence. The specificity of the antibodies used and the concentrations of PLA reagents used were optimized on test samples before use on experimental sections.

[3] = target: T2, ITGAV and IGF1R pairing in UW-SCC22 PDX tumors (Homo sapiens, UniProt P08069); assay: PLA between IGF1R and ITGAV on tumor sections; assay type: in vivo, nude mice; settings: 4 weeks
T2 construct: from tissue; host or cells: UW-SCC22 and UW-SCC64 PDX tumours, subcutaneous in nude mice
T2 sequence (P08069 31-736 limits assumed): as above
Method: as §2

[4] = system: ASK-1 in UW-SCC22 PDX tumors; assay: pT845-ASK1 staining of tumor sections; assay type: in vivo, nude mice; settings: UW-SCC22 tumors treated by injection or pump for 4 weeks
Method: as §2

[5] = system: ASK-1 in UW-SCC64 PDX tumors; assay: pT845-ASK1 staining of tumor sections; assay type: in vivo, nude mice; settings: as early as the 3-day timepoint
Method: as §2

[6] = target: T3, IGF1R and ITGAV pairing (Sdc1:IGF1R:ITGAV receptor complex) in UM-SCC47 cells (Homo sapiens, UniProt P08069); assay: Proximity ligation assay ITGAV:IGF1R in cultured cells; assay type: cell-based; settings: UM-SCC47 cells pretreated for 6 hours with 30 μmol/L; 15 images over three experiments
T3 construct: endogenous in cells; host or cells: UM-SCC47
T3 sequence (P08069 31-736 limits assumed, one chain of several): as the sequence (P08069 31-736 limits assumed) above
Method: (§3) UM-SCC47 cells treated with or without the SSTNIGF1R peptide for 6 hours were fixed in 4% paraformaldehyde, permeabilized in 0.5% Triton X-100 in 1× CMF-PBS (pH 7.4), and blocked for 1 hour at room temperature in a 3% BSA/CMF-PBS solution. Cells were stained with 1 μg/mL anti-Sdc1 polyclonal antibody, 2 μg/mL ITGAV antibody (NBP1-85746), or 4 μg/mL antibody to IGF1R (AF-305-NA) for 1 hour at room temperature, followed by incubation with 4 μg/mL Alexa488-conjugated secondary antibodies for 1 hour at room temperature. The nuclei were stained with 3 μmol/L DAPI (Molecular Probes) in 1× CMF-PBS (pH 7.4) for 10 minutes. For PLA, antibodies against ITGAV and IGF1R were used as described previously, followed by staining with PLA reagents according to the manufacturer's instructions.

[7] = allows use as a therapeutic agent in vivo; cited from earlier work
[8] = system: Sdc1, IGF1R, ITGAV cell surface expression in UM-SCC47 cells; assay: Immunofluorescent receptor staining of cultured cells; assay type: cell-based, human; settings: UM-SCC47 cells pretreated 6 hours with 30 μmol/L, compared with vehicle alone
Method: as §3

Serum IGF1 ELISA = assay type: in vivo, mice; settings: for IGF1 (ng/mL) ± SD: hSSTNIGF1R delivered by Alzet pumps, ELISA, n = 6
Method: (§4) SSTNIGF1R levels in the serum of treated animals were measured in triplicate using an AB Sciex QTrap 5500 mass spectrometry system at the UW School of Pharmacy and quantified by comparison with a standard curve of peptide in mouse serum. IGF1 levels in the serum of animals bearing UW-SCC22 or UW-SCC64 tumors were measured using an ELISA kit from Thermo Fisher Scientific (EMIGF1) and compared with a mouse IGF1 standard according to the manufacturer's instructions.

[9] = Serum peptide analysis by mass spectrometry; settings: mouse, in vivo, sc, mice, following sacrifice, 4.3 mg/kg/day by twice weekly subcutaneous injection, triplicate, read-out: steady-state concentration in plasma
Method: as §4

IGF1R in UM-SCC47 cells = target: T4, IGF1R in UM-SCC47 cells (Homo sapiens, UniProt P08069); assay: IGF1R activation (pY1131) by immunoprecipitation and Western blot; assay type: cell-based; settings: 3 hours, 100 ng/mL DES(1–3)IGF1, 30 μmol/L hSSTNIGF1R
T4 construct: constitutively active IGF1R is identified in UW-SCC47 cells by staining for pY1131; endogenous in cells; host or cells: UM-SCC47
T4 sequence (P08069 31-1367): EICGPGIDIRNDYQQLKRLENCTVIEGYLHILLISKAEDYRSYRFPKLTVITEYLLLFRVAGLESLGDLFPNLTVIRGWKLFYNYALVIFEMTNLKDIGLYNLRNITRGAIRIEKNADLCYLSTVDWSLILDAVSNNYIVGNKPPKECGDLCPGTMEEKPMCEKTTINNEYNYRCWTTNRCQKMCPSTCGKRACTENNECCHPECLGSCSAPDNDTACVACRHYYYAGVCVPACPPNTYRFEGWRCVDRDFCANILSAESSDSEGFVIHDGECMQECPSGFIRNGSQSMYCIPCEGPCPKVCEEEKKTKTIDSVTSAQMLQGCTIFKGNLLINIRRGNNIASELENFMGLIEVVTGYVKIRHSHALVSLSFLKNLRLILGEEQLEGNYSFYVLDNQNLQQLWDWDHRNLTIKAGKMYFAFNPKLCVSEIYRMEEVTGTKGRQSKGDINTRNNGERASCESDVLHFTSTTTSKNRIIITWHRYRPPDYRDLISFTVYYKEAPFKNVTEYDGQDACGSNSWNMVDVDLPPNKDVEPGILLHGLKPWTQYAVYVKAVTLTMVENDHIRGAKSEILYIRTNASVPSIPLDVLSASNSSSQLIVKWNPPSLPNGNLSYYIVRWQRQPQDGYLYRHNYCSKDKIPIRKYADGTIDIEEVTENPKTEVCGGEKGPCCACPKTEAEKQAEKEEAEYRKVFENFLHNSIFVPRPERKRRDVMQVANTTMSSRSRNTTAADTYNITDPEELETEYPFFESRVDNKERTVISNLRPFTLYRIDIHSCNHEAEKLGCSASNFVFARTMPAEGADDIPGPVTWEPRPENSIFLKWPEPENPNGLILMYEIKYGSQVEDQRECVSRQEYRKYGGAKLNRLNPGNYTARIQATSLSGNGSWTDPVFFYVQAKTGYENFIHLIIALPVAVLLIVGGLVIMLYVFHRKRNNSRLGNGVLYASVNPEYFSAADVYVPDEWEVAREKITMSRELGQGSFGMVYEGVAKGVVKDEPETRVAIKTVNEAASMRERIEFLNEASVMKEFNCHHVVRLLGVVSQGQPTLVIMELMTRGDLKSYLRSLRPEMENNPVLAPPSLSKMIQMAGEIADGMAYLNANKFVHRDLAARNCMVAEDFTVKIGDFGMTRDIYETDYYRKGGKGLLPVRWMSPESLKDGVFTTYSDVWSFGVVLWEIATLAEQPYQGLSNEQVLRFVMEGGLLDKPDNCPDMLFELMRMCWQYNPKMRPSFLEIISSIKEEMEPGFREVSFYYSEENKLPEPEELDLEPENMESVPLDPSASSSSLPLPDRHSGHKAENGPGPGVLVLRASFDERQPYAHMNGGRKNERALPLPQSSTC
Method: (§5) Immunoprecipitation of IGF1R with or without competing SSTN peptide was carried out as described previously ([18, 19]) using 0.5–1.0 mg of input/sample and lysis buffer supplemented with HALT protease and phosphatase inhibitor cocktail (Thermo Fisher Scientific).

IGF1R in HaCat cells = target: T5, IGF1R in HaCat cells (Homo sapiens, UniProt P08069); assay: as above; assay type: cell-based; settings: 3 hours, 100 ng/mL DES(1–3)IGF1, 30 μmol/L hSSTNIGF1R
T5 construct: endogenous in cells; host or cells: HaCat
T5 sequence (P08069 31-1367): as above
Method: as §5

NOK = assay: Stress and apoptosis marker antibody array; assay type: cell-based, human; settings: 16 hours, 30 μmol/L (mSSTNIGF1R per Fig. 4B)
Method: (§6) The activation of stress/apoptosis markers was analyzed as described previously ([17]). Caspase activity was measured in cells in complete culture medium with SSTNIGF1R or ASK inhibitor for 24 hours using Caspase 3/7-GLO in accordance with the manufacturer's instructions.

HaCaT keratinocyte = assay: Stress and apoptosis marker antibody array; assay type: cell-based, human; settings: 16 hours, 30 μmol/L (mSSTNIGF1R per Fig. 4B)
Method: as §6

UM-SCC47 cells [10] = assay: Stress and apoptosis marker antibody array; assay type: cell-based, human; settings: UM-SCC47 lysates; 16 hours, 30 μmol/L (mSSTNIGF1R per Fig. 4B); compared with vehicle
Method: as §6

HTE = assay: Stress and apoptosis marker antibody array; assay type: cell-based, human; settings: 16 hours, 30 μmol/L (mSSTNIGF1R per Fig. 4B)
Method: as §6

SCC25 cells [11] = assay: Stress and apoptosis marker antibody array; assay type: cell-based, human; settings: SCC25 lysates; 16 hours, 30 μmol/L (mSSTNIGF1R per Fig. 4B); compared with vehicle
Method: as §6

SCC25 cells [12] = settings: SCC25; up to 6 days, concentration range; CellTiter-GLO
Method: (§7) Cell growth was measured against a standard curve using CellTiter-GLO, in accordance with the manufacturer's instructions.

UM-SCC47 cells [13] = settings: UM-SCC47; up to 6 days, concentration range; CellTiter-GLO
Method: as §7

reduction of ITGAV and IGF1R pairing (PLA) ([2]; UW-SCC64 tumors after 3-day treatment): 80%
ITGAV and IGF1R pairing (PLA) ([2]; UW-SCC64 tumors, 5-week treatment): essentially abolished
reduction of ITGAV and IGF1R pairing (PLA) ([3]; plasma concentration 13 μmol/L (injection), versus saline-treated tumors): 90%
ITGAV and IGF1R pairing (PLA) ([3]; plasma concentration 32 μmol/L, pump-mediated delivery): reduced to nearly undetectable levels
PLA signal, colocalization of IGF1R and ITGAV [6]: signal is lost
serum levels of IGF1 (Serum IGF1 ELISA; animals bearing UW-SCC22 tumors): no change
serum levels of IGF1 (Serum IGF1 ELISA; animals bearing UW-SCC64 tumors): no change
IGF1 (ng/mL) ± SD (Serum IGF1 ELISA; serum of mice bearing UW-SCC22, saline control 34.8 ± 1.0): 34.6 ± 0.9 ng/mL
IGF1 (ng/mL) ± SD (Serum IGF1 ELISA; serum of mice bearing UW-SCC64, saline control 34.0 ± 0.9): 33.7 ± 1.1 ng/mL
level at time molar [9]: 13 µM
IGF1-mediated activation of IGF1R (pY1131) (IGF1R in UM-SCC47 cells): blocked
IGF1-mediated activation of IGF1R (pY1131) (IGF1R in HaCat cells): unaffected
Substance: STSTLPAGEGPKEGEAVVLPEVEPGLTAREQE [hSSTNIGF1R]
reduction of tumor growth compared with controls (UW-SCC22 HNSCC PDX; 4.3 mg/kg/day, Alzet pump): approximately 94%
tumor size after treatment (UW-SCC22 HNSCC PDX; 4.3 mg/kg/day, constant infusion via Alzet pump, start 102 ± 21 mm^3, saline 2,767 ± 631 mm^3): 270 ± 49 mm^3
tumor size after treatment (UW-SCC22 HNSCC PDX; 4.3 mg/kg/day, twice weekly subcutaneous injection): 664 ± 138 mm^3
reduction of tumor growth compared with controls (UW-SCC22 HNSCC PDX; twice weekly subcutaneous injection): 79%
reduction of tumor growth compared with saline-treated controls (UW-SCC64 PDX): 85%
active ASK1 (pT845), pp38MAPK, and pJNK [1]: increased
pT845-ASK-1 staining [4]: Positive staining
pT845-ASK1 staining [5]: pT845 staining indicative of ASK-1 activation
half-life [7]: ~24 h
cell surface expression of Sdc1, IGF1R, ITGAV [8]: no change
change in apoptotic markers (antibody array) (NOK): little or no response
change in apoptotic markers (antibody array) (HaCaT keratinocyte): little or no response
change in apoptotic markers (antibody array) (UM-SCC47 cells [10]): significant increases in activated caspase 3 and PARP, and reduced levels of survivin and phosphorylated Erk, Akt, and Bad
change in apoptotic markers (antibody array) (HTE): little or no response
change in apoptotic markers (antibody array) (SCC25 cells [11]): significant increases in activated caspase 3 and PARP, and reduced levels of survivin and phosphorylated Erk, Akt, and Bad

Substance: inactive mSSTNIGF1R: Inactive control peptide, amino acids 94–119 of mouse Sdc1 (AGEKPEEGEPVLHVEAEPGFTARDKE; UniProt P18828 94-119, looked up, fragment) [reference compound]
effect on cell numbers (SCC25 cells [12]): no effect
effect on cell numbers (UM-SCC47 cells [13]): no effect
